Each molecule was assayed on human neuroblastoma line BE(2)-M17 (M17) cells (assay: Measurement of Fe efflux from cells (57Fe in media by ICP-MS)). Settings: Homo sapiens; M17 cells pre-loaded with 57Fe; compound 20 μM, 2 h; Fe in media as percentage increase relative to cell media in the absence of the compound; read-out: % Fe Efflux Range.
Type: cell-based
Description: Compounds of the current invention were assessed for their ability to efflux iron (Fe) from a cell using the following protocol. The human neuroblastoma line BE(2)-M17 (M17) cell cultures were acquired from Sigma Aldrich (Catalogue #: 95011816). M17 cells were maintained in Opti-MEM reduced serum media supplemented with 10% fetal bovine serum (Bovogen, SFBSF) and passaged twice weekly. Cells were cultured at 37° C. in the presence of 5% CO2. Culture supplies were sourced from Thermo Fisher unless otherwise stated. A solution of ^57Fe isotope was prepared by dissolving ^57Fe metal (>95% enrichment, Trace Sciences International) in concentrated HCl to give a final concentration of 573 mM. From this master solution, a 10 mM working solution was prepared in sterile water. The working solution was used within two months of preparation. M17 cells were loaded with iron initially by seeding into 48-well plates at a density of 0.15×10^6 cells per well in 0.5 mL media. After 48 h, old media was discarded. Fresh media was added supplemented from the 10 mM ^57Fe working solution to yield media containing 20 μM ^57Fe isotope. Cells received 0.2 mL of this ^57Fe enriched media and were returned to the incubator for 20 h. The ability of experimental compounds to efflux iron was determined by the dissolution of compounds in DMSO and diluted in Hanks' Balanced Salt Solution (HBSS) for treatment of M17 cells. After ^57Fe incubation, cells were rinsed twice with HBSS and treated with 0.15 ml trial compound for 2 h. Experimental substances were routinely screened at a concentration of 20 μM, however dilutions ranging from 1-40 μM were occasionally applied to further elucidate the properties of key compounds. All assays included a relevant vehicle (0.4%-0.8% DMSO) as well as a positive control. Following the treatment period, 0.1 mL of media was collected from cells and the extracellular ^57Fe content was analysed via inductively coupled mass spectrometry (ICP-MS, Agilent 7700×series instrument). […] After 2 h the Fe levels in the media were measured and the increase determined as a percentage increase relative to the cell media in the absence of the compound. [formula] Representative data is provided in Table 1 where the % Fe efflux for the specified compounds of the invention lie in the following ranges: A<30%, B 30-100%, C 100-150%; D>150%

First: Cc1ccc(O)c(-c2nc(-c3cccnc3O)c3n2CCCC3)c1 [Compound 13, 3-(3-(2-Hydroxy-5-methylphenyl)-5,6,7,8-tetrahydroimidazo[1,5-a]pyridine-1-yl)pyridine-2-ol]
Second: Cc1ccc(O)c(-c2nc(-c3ccccc3O)c3n2CCCC3)c1 [Compound 8, 2-(1-(2-Hydroxyphenyl)-5,6,7,8-tetrahydroimidazo[1,5-a]pyridin-3-yl)-4-methylphenol]
The activation at 20 µM of the first is higher: 100 to 150% for the first, < 30% for the second.

Oc1ccccc1-c1nc(-c2ccccc2O)n2c1CCC(C(F)(F)F)C2 (stereo not drawn) [Compound 36, 2,2′-(6-(Trifluoromethyl)-5,6,7,8-tetrahydroimidazo[1,5-a]pyridine-1,3-diyl)diphenol] and Cc1ccc(O)c(-c2nc(-c3ccccc3O)c3n2CC(C(F)(F)F)CC3)c1 (stereo not drawn) [Compound 38, 2-(1-(2-Hydroxyphenyl)-6-(trifluoromethyl)-5,6,7,8-tetrahydroimidazo[1,5-a]pyridin-3-yl)-4-methylphenol] cannot be ordered by activation at 20 µM: < 30% for the first, < 30% for the second.

Compared with Cc1ccc(O)c(-c2nc(-c3ccccc3O)c3n2CC(C)CC3)c1 (stereo not drawn) [Compound 37, 2-(1-(2-Hydroxyphenyl)-6-methyl-5,6,7,8-tetrahydroimidazo[1,5-a]pyridin-3-yl)-4-methylphenol], COC(=O)c1ccc(O)c(-c2nc(-c3ccccc3O)c3n2CCCC3)c1 [Compound 10, Methyl 4-hydroxy-3-(1-(2-hydroxyphenyl)-5,6,7,8-tetrahydroimidazo[1,5-a]pyridin-3-yl)benzoate] is higher in activation at 20 µM: < 30% for the first, 30 to 100% for the second.

Compared with Oc1ccncc1-c1nc(-c2cccc(F)c2O)n2c1CCCC2 [Compound 30, 3-(3-(3-Fluoro-2-hydroxyphenyl)-5,6,7,8-tetrahydroimidazo[1,5-a]pyridin-1-yl)pyridin-4-ol], Oc1ccncc1-c1nc(-c2ccccc2O)n2c1CCCC2 [Compound 29, 3-(3-(2-Hydroxyphenyl)-5,6,7,8-tetrahydroimidazo[1,5-a]pyridin-1-yl)pyridin-4-ol] is lower in activation at 20 µM: > 150% for the first, 100 to 150% for the second.

Cc1ccc(O)c(-c2nc(-c3cccc(F)c3O)n3c2CCCC3)n1 [Compound 2, 2-(3-(3-Fluoro-2-hydroxyphenyl)-5,6,7,8-tetrahydroimidazo[1,5-a]pyridin-1-yl)-6-methylpyridin-3-ol] and Cc1ccc(O)c(-c2nc(-c3cccc(F)c3O)n3c2CCC3)n1 [Compound 59, 2-(3-(3-Fluoro-2-hydroxyphenyl)-6,7-dihydro-5H-pyrrolo[1,2-c]imidazol-1-yl)-6-methylpyridin-3-ol] cannot be ordered by activation at 20 µM: > 150% for the first, > 150% for the second.

Cc1ccc(O)c(-c2nc(-c3ccccc3O)n3c2CCCC3)n1 [Compound 1, 2-(3-(2-Hydroxyphenyl)-5,6,7,8-tetrahydroimidazo[1,5-a]pyridin-1-yl)-6-methylpyridin-3-ol] and Cc1ccc(O)c(-c2nc(-c3ccccc3O)n3c2CCC3)n1 [Compound 50, 2-(3-(2-Hydroxyphenyl)-6,7-dihydro-5H-pyrrolo[1,2-c]imidazol-1-yl)-6-methylpyridin-3-ol] cannot be ordered by activation at 20 µM: > 150% for the first, > 150% for the second.

First: Cc1ccc(O)c(-c2nc(-c3c(O)cccc3F)n3c2CCCC3)n1 [Compound 4, 2-(3-(2-Fluoro-6-hydroxyphenyl)-5,6,7,8-tetrahydroimidazo[1,5-a]pyridin-1-yl)-6-methylpyridin-3-ol]
Second: Cc1ccc(O)c(-c2nc(-c3cccc(C)c3O)n3c2CCCC3)n1 [Compound 6, 2-(3-(2-Hydroxy-3-methylphenyl)-5,6,7,8-tetrahydroimidazo[1,5-a]pyridin-1-yl)-6-methylpyridin-3-ol]
The activation at 20 µM of the first is lower: 30 to 100% for the first, 100 to 150% for the second.

Compared with Cc1ccc(O)c(-c2nc(-c3nc(C)ccc3O)c3n2CCCC3)c1 [Compound 5, 2-(3-(2-Hydroxy-5-methylphenyl)-5,6,7,8-tetrahydroimidazo[1,5-a]pyridin-1-yl)-6-methylpyridin-3-ol], Cc1ccc(O)c(-c2nc(-c3cc(F)ccc3O)n3c2CCCC3)n1 [Compound 3, 2-(3-(5-Fluoro-2-hydroxyphenyl)-5,6,7,8-tetrahydroimidazo[1,5-a]pyridin-1-yl)-6-methylpyridin-3-ol] is lower in activation at 20 µM: > 150% for the first, 100 to 150% for the second.

Oc1ccccc1-c1nc(-c2cccc(CN3CCOCC3)c2O)n2c1CCCC2 [Compound 12, 2-(1-(2-Hydroxyphenyl)-5,6,7,8-tetrahydroimidazo[1,5-a]pyridin-3-yl)-6-(morpholinomethyl)phenol] and Oc1ccccc1-c1nc(-c2ccccc2O)n2c1CCCC2 [Compound 7, 2,2′-(5,6,7,8-tetraHydroimidazo[1,5-a]pyridine-1,3-diyl)diphenol] cannot be ordered by activation at 20 µM: < 30% for the first, < 30% for the second.

Oc1ncccc1-c1nc(-c2cccc(Cl)c2O)n2c1CCCC2 [Compound 14, 3-(3-(3-Chloro-2-hydroxyphenyl)-5,6,7,8-tetrahydroimidazo[1,5-a]pyridin-1-yl)pyridin-2-ol] and Oc1ccccc1-c1nc(-c2cccnc2O)c2n1CCCC2 [Compound 15, 3-(3-(2-hydroxyphenyl)-5,6,7,8-tetrahydroimidazo[1,5-a]pyridin-1-yl)pyridin-2-ol] fall in the same range of activation at 20 µM: 100 to 150% for the first, 100 to 150% for the second.

Oc1ccccc1-c1nc(-c2ccccn2)n2c1CCCC2 [Compound 11, 2-(3-(Pyridin-2-yl)-5,6,7,8-tetrahydroimidazo[1,5-a]pyridin-1-yl)phenol] and Oc1ccccc1-c1nc(-c2c(O)cccc2F)n2c1CCCC2 [Compound 9, 3-Fluoro-2-(1-(2-hydroxyphenyl)-5,6,7,8-tetrahydroimidazo[1,5-a]pyridin-3-yl)phenol] cannot be ordered by activation at 20 µM: < 30% for the first, < 30% for the second.

In the case of CCN(CC)CCc1cccc(-c2nc(-c3ccncc3O)c3n2CCCC3)c1O [Compound 22, 4-(3-(3-(2-(Diethylamino)ethyl)-2-hydroxyphenyl)-5,6,7,8-tetrahydroimidazo[1,5-a]pyridin-1-yl)pyridin-3-ol], the activation at 20 µM is reported as 100 to 150%.

Same assay, conditions: M17 cells pre-loaded with 57Fe; compound 20 μM, 2 h; Fe in media as percentage increase relative to cell media in the absence of the compound

In the case of Oc1cnccc1-c1nc(-c2ccccc2O)n2c1CCCC2 [Compound 21, 4-(3-(2-Hydroxyphenyl)-5,6,7,8-tetrahydroimidazo[1,5-a]pyridin-1-yl)pyridin-3-ol], the “% Fe Efflux Range” value is reported as “D (D>150%)”.
